Data on 35 compounds can be found in US9802960B2 (MILLENNIUM PHARMACEUTICALS, INC., priority 2014, dated 2017).

Where only a bound is given, the exact number is not on record here.

Sequence of Human VPS34 (Q8NEB9 whole entry): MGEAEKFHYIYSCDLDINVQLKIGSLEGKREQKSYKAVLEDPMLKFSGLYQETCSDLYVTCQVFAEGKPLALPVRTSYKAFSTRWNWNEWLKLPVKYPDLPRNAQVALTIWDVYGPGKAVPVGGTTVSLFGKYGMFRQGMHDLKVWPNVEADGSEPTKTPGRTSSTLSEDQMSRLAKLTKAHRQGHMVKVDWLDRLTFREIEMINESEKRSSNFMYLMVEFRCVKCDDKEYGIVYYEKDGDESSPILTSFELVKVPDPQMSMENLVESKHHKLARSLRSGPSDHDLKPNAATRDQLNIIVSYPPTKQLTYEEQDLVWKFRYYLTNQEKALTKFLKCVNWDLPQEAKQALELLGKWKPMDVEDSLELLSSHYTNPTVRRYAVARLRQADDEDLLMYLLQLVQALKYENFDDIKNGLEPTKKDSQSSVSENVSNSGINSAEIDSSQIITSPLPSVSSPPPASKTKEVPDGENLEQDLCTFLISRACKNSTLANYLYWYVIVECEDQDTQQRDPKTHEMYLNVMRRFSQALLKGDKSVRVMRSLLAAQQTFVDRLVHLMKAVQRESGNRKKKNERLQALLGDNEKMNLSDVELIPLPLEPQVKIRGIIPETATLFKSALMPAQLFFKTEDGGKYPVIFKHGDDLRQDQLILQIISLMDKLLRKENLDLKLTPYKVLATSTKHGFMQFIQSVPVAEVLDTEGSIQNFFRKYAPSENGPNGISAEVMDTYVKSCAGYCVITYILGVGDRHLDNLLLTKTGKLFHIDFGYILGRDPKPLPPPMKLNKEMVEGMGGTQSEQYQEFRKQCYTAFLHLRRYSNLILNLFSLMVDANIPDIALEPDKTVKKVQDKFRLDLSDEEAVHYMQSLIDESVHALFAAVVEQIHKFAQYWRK

One experiment addresses Human VPS34 (Homo sapiens (Human), UniProt Q8NEB9). As to the kind of experiment: Human VPS34 enzyme assay (Adapta TR-FRET). The format is biochemical. The following applies: compound concentration 1.11 μM. Background: In TR-FRET formats the signal depends on donor and acceptor labels being close together.
For `Cc1nc(Nc2cc(-c3cnc(Cl)c(NS(=O)(=O)c4ccc(F)cc4F)c3C)ccn2)ccc1C#N` [Compound I-238, N-{6-chloro-2′-[(5-cyano-6-methylpyridin-2-yl)amino]-4-methyl-3,4′-bipyridin-5-yl}-2,4-difluorobenzenesulfonamide], the “Percent Inhibition” value was determined as 93%.

Staying with this experiment, now noted: compound concentration 1.11 μM; read-out: Percent Inhibition.
As usually defined, the inhibition is how much of the control response was suppressed. Consider `COc1ncc(-c2ccnc(NC(C)=O)c2)cc1NS(=O)(=O)N(C)C` [Compound I-220, N-{5-[(dimethylsulfamoyl)amino]-6-methoxy-3,4′-bipyridin-2′-yl}acetamide], for which the inhibition at 1.11 µM was determined as 99%.

For the compound `Cc1nccc(Nc2cc(-c3cnc(C)c(C(=O)N4CC(F)(F)C4)c3)ccn2)n1` [Compound I-221, (3,3-difluoroazetidin-1-yl){6-methyl-2′-[(2-methylpyrimidin-4-yl)amino]-3,4′-bipyridin-5-yl}methanone], the inhibition at 1.11 µM was found to be 97%. Take `CNc1ncc(-c2ccnc(Nc3ccncn3)c2)cc1C(=O)N(C)C12CC(C1)C2` [Compound I-222, N-(bicyclo[1.1.1]pent-1-yl)-N-methyl-6-(methylamino)-2′-(pyrimidin-4-ylamino)-3,4′-bipyridine-5-carboxamide]: the inhibition at 1.11 µM amounted to 93%. On to `Cc1nccc(Nc2cc(-c3cnc(C)c(C(=S)N4CCC4)c3)ccn2)n1` [Compound I-223, Azetidin-1-yl{6-methyl-2′-[(2-methylpyrimidin-4-yl)amino]-3,4′-bipyridin-5-yl}methanethione], for which the inhibition at 1.11 µM was determined as 95%.

As for `COc1ncc(-c2ccnc(Nc3ccnc(C)n3)c2)cc1S(=O)(=O)NC1CCC1` [Compound I-224, N-cyclobutyl-6-methoxy-2′-[(2-methylpyrimidin-4-yl)amino]-3,4′-bipyridine-5-sulfonamide], the inhibition at 1.11 µM stood at 99%. Take `COc1nccc(Nc2cc(-c3cnc(Cl)c(NS(=O)(=O)c4ccc(F)cc4F)c3C)ccn2)n1` [Compound I-225, N-{6-chloro-2′-[(2-methoxypyrimidin-4-yl)amino]-4-methyl-3,4′-bipyridin-5-yl}-2,4-difluorobenzene sulfonamide]: the inhibition at 1.11 µM is above 99%. For `Cc1nccc(Nc2cc(-c3cnc(Cl)c(N)c3C)ccn2)n1` [Compound I-226, 6-chloro-4-methyl-N-2′-(2-methylpyrimidin-4-yl)-3,4′-bipyridine-2′,5-diamine], the inhibition at 1.11 µM turned out to be 94%. Regarding `CC(=O)Nc1cc(-c2cnc(Cl)c(NS(=O)(=O)c3cc(F)ccc3F)c2C)ccn1` [Compound I-227, N-(6-chloro-5-{[(2,5-difluorophenyl)sulfonyl]amino}-4-methyl-3,4′-bipyridin-2′-yl)acetamide], the inhibition at 1.11 µM is above 99%. With `Cc1ncc(-c2ccnc(Nc3ccc(C#N)cn3)c2)cc1NS(=O)(=O)c1ccc(F)cc1F` [Compound I-228, N-{2′-[(5-cyanopyridin-2-yl)amino]-6-methyl-3,4′-bipyridin-5-yl}-2,4-difluorobenzene sulfonamide], the inhibition at 1.11 µM is above 99%. On to `Cc1nc(Nc2cc(-c3cnc(C)c(NS(=O)(=O)N(C)C)c3)ccn2)ccc1C#N` [Compound I-229, N-{2′-[(5-cyano-6-methylpyridin-2-yl)amino]-6-methyl-3,4′-bipyridin-5-yl}-N,N-dimethylsulfuric diamide], for which the inhibition at 1.11 µM is above 99%. Take `COc1nccc(Nc2cc(-c3cnc(N)c(C(=O)N(C)C45CC(C4)C5)c3)ccn2)n1` [Compound I-230, 6-amino-N-(bicyclo[1.1.1]pent-1-yl)-2′-((2-methoxypyrimidin-4-yl)amino)-N-methyl-[3,4′-bipyridine]-5-carboxamide]: the inhibition at 1.11 µM was 97%. `Nc1cncc(-c2ccnc(N)c2)c1` [Compound I-231, 3,4′-bipyridine-2′,5-diamine]: the inhibition at 1.11 µM was 26%.

With `Cc1nccc(Nc2cc(-c3cnc(Cl)c(C(=O)N4CCC4)c3)ccn2)n1` [Compound I-232, azetidin-1-yl{6-chloro-2′-[(2-methylpyrimidin-4-yl)amino]-3,4′-bipyridin-5-yl}methanone], the inhibition at 1.11 µM is 81%. For the compound `Cc1ncc(-c2ccnc(Nc3nc4ccccc4o3)c2)cc1NS(=O)(=O)c1ccc(F)cc1F` [Compound I-233, N-[2'-(1,3-benzoxazol-2-ylamino)-6-methyl-3,4′-bipyridin-5-yl]-2,4-difluorobenzene sulfonamide], the inhibition at 1.11 µM worked out at 96%. As for `Cc1nccc(Nc2cc(-c3cncc(C(=O)N(C)C45CC(C4)C5)c3)ccn2)n1` [Compound I-234, N-(bicyclo[1.1.1]pent-1-yl)-N-methyl-2′-[(2-methylpyrimidin-4-yl)amino]-3,4′-bipyridine-5-carboxamide], the inhibition at 1.11 µM was 90%. Same read-out and setting: the figure for `Cc1ccc2ccc(Nc3cc(-c4cnc(C)c(NS(=O)(=O)c5ccc(F)cc5F)c4)ccn3)nc2n1` [Compound I-235, 2,4-difluoro-N-{6-methyl-2′-[(7-methyl-1,8-naphthyridin-2-yl)amino]-3,4′-bipyridin-5-yl}benzenesulfonamide] is 92%.

For the compound `CC(=O)Nc1cc(-c2cnc(Cl)c(NS(=O)(=O)N(C)C)c2C)ccn1` [Compound I-236, N-{6-chloro-5-[(dimethylsulfamoyl)amino]-4-methyl-3,4′-bipyridin-2′-yl}acetamide], the inhibition at 1.11 µM came out at 98%. As for `Cc1ncc(-c2ccnc(Nc3ccnc(C(F)(F)F)n3)c2)cc1NS(=O)(=O)c1ccc(F)cc1F` [Compound I-237, 2,4-difluoro-N-(6-methyl-2′-{[2-(trifluoromethyl)pyrimidin-4-yl]amino}-3,4′-bipyridin-5-yl)benzenesulfonamide], the inhibition at 1.11 µM amounted to 91%. Take `Cc1ncc(-c2ccnc(Nc3ccncn3)c2)cc1NS(=O)(=O)c1ccc(F)cc1F` [Compound I-239]: the inhibition at 1.11 µM is above 99%.

In the case of `CC(=O)Nc1cc(-c2cnc(Cl)c(NS(=O)(=O)c3ccccc3Cl)c2C)ccn1` [Compound I-240, N-(6-chloro-5-{[(2-chlorophenyl)sulfonyl]amino}-4-methyl-3,4′-bipyridin-2′-yl)acetamide], the inhibition at 1.11 µM is above 99%. In the case of `COC(=O)Nc1cc(-c2cnc(C)c(NS(=O)(=O)N(C)C)c2)ccn1` [Compound I-241, methyl {5-[(dimethylsulfamoyl)amino]-6-methyl-3,4′-bipyridin-2′-yl}carbamate], the inhibition at 1.11 µM was 96%.

For `Cc1nccc(Nc2cc(-c3cnc(Cl)c(S(=O)(=O)NC45CC(C4)C5)c3)ccn2)n1` [Compound I-242, N-(bicyclo[1.1.1]pent-1-yl)-6-chloro-2′-[(2-methylpyrimidin-4-yl)amino]-3,4′-bipyridine-5-sulfonamide], the inhibition at 1.11 µM came out at 88%.

As for `CC(=O)Nc1cc(-c2cnc(Cl)c(NS(=O)(=O)c3ccc(Cl)cc3Cl)c2C)ccn1` [Compound I-243, N-(6-chloro-5-{[(2,4-dichlorophenyl)sulfonyl]amino}-4-methyl-3,4′-bipyridin-2′-yl)acetamide], the inhibition at 1.11 µM worked out at 85%. Same read-out and setting: the value for `Cc1ncc(-c2ccnc(NC(=O)C3CC3(F)F)c2)cc1NS(=O)(=O)N(C)C` (centres unmarked) [Compound I-244, N-{5-[(dimethylsulfamoyl)amino]-6-methyl-3,4′-bipyridin-2′-yl}-2,2-difluorocyclopropanecarboxamide] was 82%; that for `COc1nccc(Nc2cc(-c3cncc(C(=O)N(C)C45CC(C4)C5)c3)ccn2)n1` [Compound I-245, N-(bicyclo[1.1.1]pent-1-yl)-2′-[(2-methoxypyrimidin-4-yl)amino]-N-methyl-3,4′-bipyridine-5-carboxamide] was above 99%. For `Cc1ncc(-c2ccnc(Nc3ccnc(C4CC4)n3)c2)cc1C(=O)N1CCC1` [Compound I-246, azetidin-1-yl{2′-[(2-cyclopropylpyrimidin-4-yl)amino]-6-methyl-3,4′-bipyridin-5-yl}methanone], the inhibition at 1.11 µM turned out to be 91%. As for `CC(=O)Nc1cc(-c2cnc(C)c(NS(=O)(=O)c3ccc(F)cc3F)c2C)ccn1` [Compound I-247, N-(5-{[(2,4-difluorophenyl)sulfonyl]amino}-4,6-dimethyl-3,4′-bipyridin-2′-yl)acetamide], the inhibition at 1.11 µM was above 99%. The same measure, in the same setting: the value for `COc1ncc(-c2ccnc(NC(C)=O)c2)c(C)c1NS(=O)(=O)c1ccc(F)cc1F` [Compound I-248, N-(5-{[(2,4-difluorophenyl)sulfonyl]amino}-6-methoxy-4-methyl-3,4′-bipyridin-2′-yl)acetamide] was above 99%.

Turning to `Cc1nccc(Nc2cc(-c3cnc(C)c(NC(=O)c4ccc(F)cc4F)c3)ccn2)n1` [Compound I-249, 2,4-difluoro-N-{6-methyl-2′-[(2-methylpyrimidin-4-yl)amino]-3,4′-bipyridin-5-yl}benzamide], the inhibition at 1.11 µM was 85%. On to `CC(=O)Nc1cc(-c2cnc(Cl)c(NS(=O)(=O)c3ccc(F)cc3F)c2C)c(C)cn1` [Compound I-250, N-(6-chloro-5-{[(2,4-difluorophenyl)sulfonyl]amino}-4,5′-dimethyl-3,4′-bipyridin-2′-yl)acetamide], for which the inhibition at 1.11 µM stood at 99%. On the same count and under the same terms, the figure for `CC(=O)Nc1cc(-c2cnc(Cl)c(NS(=O)(=O)c3ccccc3F)c2C)ccn1` [Compound I-251, N-(6-chloro-5-{[(2-fluorophenyl)sulfonyl]amino}-4-methyl-3,4′-bipyridin-2′-yl)acetamide] is 97%.

Consider `COc1ncc(-c2ccnc(Nc3ccnc(C)n3)c2)cc1C(=O)N(C)c1ccc(F)cc1F` [Compound I-252, N-(2,4-difluorophenyl)-6-methoxy-N-methyl-2′-[(2-methylpyrimidin-4-yl)amino]-3,4′-bipyridine-5-carboxamide], for which the inhibition at 1.11 µM is above 99%. Take `Cc1nccc(Nc2cc(-c3cnc(C)c(C(=O)O)c3)ccn2)n1` [Compound I-253, 6-methyl-2′-((2-methylpyrimidin-4-yl)amino)-[3,4′-bipyridine]-5-carboxylic acid]: the inhibition at 1.11 µM was 96%. On the same count and under the same terms, the value for `Cc1c(-c2ccnc(NC(=O)C3CC3(F)F)c2)cnc(Cl)c1NS(=O)(=O)c1ccc(F)cc1F` (centres unmarked) [Compound I-254, N-(6-chloro-5-{[(2,4-difluorophenyl)sulfonyl]amino}-4-methyl-3,4′-bipyridin-2′-yl)-2,2-difluorocyclopropanecarboxamide] was 77%.
